Source: patent US12215106B2, “Pharmaceutical compounds and therapeutic methods” (RUTGERS, THE STATE UNIVERSITY OF NEW JERSEY, priority 2018, dated 2025)
Structures can show the parent of a compound that is named as a salt. Where two headings read alike, the source gives them in different places.

Assay: Plasma pharmacokinetics and brain distribution after single IV, IP and oral administration
Assay type: in vivo
Experimental: The objective of this study was to investigate the plasma pharmacokinetics and brain distribution of Compound (14 in male C57BL/6 mice following a single intravenous, intraperitoneal and oral administration. A group of sixty-three male mice were divided into three groups (Group 1: 2 mg/kg/IV; Group 2: 10 mg/kg/IP and Group 3: 10 mg/kg/PO) with each group comprising of twenty-one mice.
Animals in Group 1 were administered intravenously with Compound 15 solution formulation in 5% NMP, 5% Solutol HS-15, 30% PEG-400 and 60% Captisol (20% w/v) at 2 mg/kg dose. […] Considering mortality intravenous dose was reduced to 2 mg/kg.
Animals in Group 2 and 3 were administered with Compound 15 solution formulation in 5% NMP, 5% Solutol HS-15, 30% PEG-400 and 60% Captisol (20% w/v) at a dose of 10 mg/kg by intraperitoneal and oral route respectively.
(§1) Blood samples (approximately 60 μL) were collected under light isoflurane anesthesia from retro orbital plexus from a set of three mice at 0.08, 0.35, 1, 3, 6, 12 and 24 hr. Plasma samples were separated by centrifugation of whole blood and stored below −70±10° C. until bioanalysis. Immediately after collection of blood, brain samples were collected from set of three mice at each time point. Brain samples were homogenized using ice-cold phosphate buffer saline (pH-7.4) in a ratio of 2 (buffer):1(brain); and homogenates were stored below −70±10° C. until analysis. Total homogenate volume was three times the brain weight. All samples were processed for analysis by protein precipitation using acetonitrile and analyzed with fit-for-purpose LC/MS/MS method (LLOQ2.00 ng/mL for plasma and 3.00 ng/g for brain). Pharmacokinetic parameters were calculated using the non-compartmental analysis tool of Phoenix WinNonlin® (Version 7.0). Pharmacokinetic parameters of Compound 15 are summarized below.
The objective of this study was to investigate the plasma pharmacokinetics and brain distribution of Compound 16 in male C57BL/6 mice following a single intravenous, intraperitoneal and oral administration. A group of sixty-three male mice were divided into three groups (Group 1: 10 mg/kg/IV; Group 2: 10 mg/kg/IP and Group 3: 10 mg/kg/PO) with each group comprising of twenty-one mice.
Animals in Group 1 were administered intravenously with Compound 16 solution formulation in 5% NMP, 5% Solutol HS-15 and 90% normal saline at 10 mg/kg dose.
Animals in Group 2 and 3 were administered with Compound 16 solution formulation in 5% NMP, 5% Solutol HS-15 and 90% normal saline at a dose of 10 mg/kg by intraperitoneal and oral route respectively.
as §1, with “(LLOQ—1.00” for “(LLOQ2.00”, “16” for “15”
The objective of this study was to investigate the plasma pharmacokinetics and brain distribution of Compound 17 in male C57BL/6 mice following a single intravenous, intraperitoneal and oral administration. A group of sixty-three male mice were divided into three groups (Group 1: 2 mg/kg/IV; Group 2: 10 mg/kg/IP and Group 3: 10 mg/kg/PO) with each group comprising of twenty-one mice. […]

[1] = male, C57BL/6, mouse, in vivo, iv, 2 mg/kg, Mean brain conc.
[2] = male, C57BL/6, mouse, in vivo, iv, 2 mg/kg, Mean plasma conc.
[3] = male, C57BL/6, mouse, in vivo, iv, 2 mg/kg, Plasma concentration, individual animal
[4] = male, C57BL/6, mouse, in vivo, po, 10 mg/kg
[5] = male, C57BL/6, mouse, in vivo, po, 10 mg/kg, 12 h
[6] = male, C57BL/6, mouse, in vivo, po, 10 mg/kg, 24 h
[7] = male, C57BL/6, mouse, in vivo, po, 10 mg/kg, Brain concentration, individual animal
[8] = male, C57BL/6, mouse, in vivo, po, 10 mg/kg, Mean brain conc.
[9] = male, C57BL/6, mouse, in vivo, po, 10 mg/kg, Mean plasma conc.
[10] = male, C57BL/6, mouse, in vivo, po, 10 mg/kg, Plasma concentration, individual animal
[11] = male, C57BL/6, mouse, plasma, IP 10 mg/kg
[12] = male, C57BL/6, mouse, plasma, IV 2 mg/kg
[13] = male, C57BL/6, mouse, plasma, PO 10 mg/kg

[2H]C1([2H])Oc2ccc(Nc3nc(-c4c(C)nc5ccccn45)cs3)cc2O1 [Compound 17, N-(benzo[d][1,3]dioxol-5-yl-2,2-d2)-4-(2-methylimidazo[1,2-c]pyridin-3-yl)thiazol-2-amine hydrochloride]
concentration at 6 h [1]: 0 ng/g
concentration at 12 h [1]: 0 ng/g
concentration at 24 h [1]: 0 ng/g
concentration at 0.08 h [2]: 256 ng/mL
concentration at 0.35 h [2]: 44.8 ng/mL
concentration at 1 h [2]: 9.57 ng/mL
concentration at 3 h [2]: 0 ng/mL
concentration at 6 h [2]: 0 ng/mL
concentration at 12 h [2]: 0 ng/mL
concentration at 24 h [2]: 0 ng/mL
concentration at 0.08 h [3]: 260 ng/mL
concentration at 0.35 h [3]: 41.5 ng/mL
concentration at 3 h [3]: 0 ng/mL
concentration at 6 h [3]: 0 ng/mL
concentration at 12 h [3]: 0 ng/mL
concentration at 24 h [3]: 0 ng/mL
Brain concentrations quantifiable up to [4]: up to 6 hr
Plasma concentrations quantifiable up to [4]: up to 6 hr
Brain concentration, individual animal [5]: 0.00 ng/g
Plasma concentration, individual animal [5]: 0.00 ng/mL
Brain concentration, individual animal [6]: 0.00 ng/g
Plasma concentration, individual animal [6]: 0.00 ng/mL
concentration at 0.35 h [7]: 43.6 ng/g
concentration at 3 h [7]: 28.1 ng/g
concentration at 12 h [7]: 0 ng/g
concentration at 24 h [7]: 0 ng/g
concentration at 0.35 h [8]: 53 ng/g
concentration at 1 h [8]: 51.9 ng/g
concentration at 3 h [8]: 20.5 ng/g
concentration at 6 h [8]: 10.5 ng/g
concentration at 12 h [8]: 0 ng/g
concentration at 24 h [8]: 0 ng/g
concentration at 0.35 h [9]: 163 ng/mL
concentration at 1 h [9]: 109 ng/mL
concentration at 3 h [9]: 63.5 ng/mL
concentration at 6 h [9]: 45.5 ng/mL
concentration at 12 h [9]: 0 ng/mL
concentration at 24 h [9]: 0 ng/mL
concentration at 3 h [10]: 62.6 ng/mL
concentration at 12 h [10]: 0 ng/mL
concentration at 24 h [10]: 0 ng/mL
concentration at 0.08 h (male, C57BL/6, mouse, in vivo, IP 10 mg/kg, 0.08 hr, read-out: Mean brain conc.): 288 ng/g
concentration at 0.08 h (male, C57BL/6, mouse, in vivo, IP 10 mg/kg, 0.08 hr, read-out: Mean plasma conc.): 469 ng/mL
Kp at 0.08 h (male, C57BL/6, mouse, in vivo, IV 2 mg/kg, 0.08 hr, read-out: Brain-to-plasma ratio): 0.18
Kp at 0.35 h (male, C57BL/6, mouse, in vivo, IV 2 mg/kg, 0.35 hr, read-out: Brain-to-plasma ratio): 4.03
Kp at 1 h (male, C57BL/6, mouse, in vivo, IV 2 mg/kg, 1 hr, read-out: Brain-to-plasma ratio): 1.45
concentration at 0.08 h (male, C57BL/6, mouse, in vivo, PO 10 mg/kg, 0.08 hr, read-out: Mean brain conc.): 67.3 ng/g
concentration at 0.08 h (male, C57BL/6, mouse, in vivo, PO 10 mg/kg, 0.08 hr, read-out: Mean plasma conc.): 207 ng/mL
Cmax (male, C57BL/6, mouse, in vivo, brain, IP 10 mg/kg): 288 ng/g
Cmax (male, C57BL/6, mouse, in vivo, brain, PO 10 mg/kg): 67.3 ng/g
Cmax (male, C57BL/6, mouse, in vivo, plasma, IP 10 mg/kg): 469 ng/mL
Cmax (male, C57BL/6, mouse, in vivo, plasma, PO 10 mg/kg): 207 ng/mL
bioavailability (male, C57BL/6, mouse, plasma, po, 10 mg/kg, PO 10 mg/kg, AUClast considered, read-out: Oral bioavailability, % F): > 100%
bioavailability (male, C57BL/6, mouse, plasma, po, 10 mg/kg, summary data, read-out: Oral bioavailability): > 100%
Tmax (male, C57BL/6, mouse, brain, IP 10 mg/kg): 4.8 min
Tmax (male, C57BL/6, mouse, brain, PO 10 mg/kg): 4.8 min
AUC(0-inf) [11]: 786 ng·h/mL
AUC(0-t) [11]: 675 ng·h/mL
Tmax [11]: 4.8 min
AUC(0-inf) [12]: 88.2 ng·h/mL
AUC(0-t) [12]: 85.7 ng·h/mL
clearance (male, C57BL/6, mouse, plasma, IV 2 mg/kg, read-out: CL, plasma clearance): 378 mL/min/kg
half-life (male, C57BL/6, mouse, plasma, IV 2 mg/kg, read-out: T1/2, terminal elimination half-life (converted)): 12.6 min
Vd (male, C57BL/6, mouse, plasma, IV 2 mg/kg, read-out: Vss): 4.4 L/kg
AUC(0-t) [13]: 482 ng·h/mL
Tmax [13]: 4.8 min
mortality immediately after dose administration (mouse, in vivo, iv, 10 mg/kg): mortality was observed in six animals
Oral bioavailability (summary data, hydrochloride): 112%
